Earlier results on nine compounds are cited in publication PMC10582684 (RSC Advances, 2023).

Like-named read-outs stand apart in the source and are kept apart here.

Data set [1] deals with ACE.
For data set [2] the following is noted: literature comparison.
The conditions of data set [3]: oligopeptides from ginkgo seed and bighead carp, high content of Pro.
The mark [4] stands for this setting: peptides from walnut protein with Lys in C-terminal tripeptide.

Consider PKPP, for which the “Inhibiting ability on ACE (in words)” value in data set [1] (setting [4]) is recorded as “excellent inhibiting ability on ACE”.
Consider TGLL, for which, in data set [2], the “Chelating ability towards zinc ions” value was 2.27 mg/g.
Consider PPKP, for which the “Inhibiting ability on ACE (in words)” value in data set [1] (setting [4]) is “excellent inhibiting ability on ACE”.
As for VPKIPPP, the “Stability against gastrointestinal enzymic digestion (in words)” value (“Stability” for short) in data set [3] was “excellent stability”.
Regarding YIRLHF, in data set [1] (peptide from bighead carp protein), the “Inhibitory kinetics on ACE” value is reported as “competitive inhibitory kinetics”.
Consider LSMSFPPF, for which the “Stability” value in data set [3] is listed as “excellent stability”.
Turning to WNGPKGV, the “Inhibiting ability on ACE (in words)” value in data set [1] (peptide from corn protein with Lys in C-terminal tripeptide) is recorded as “excellent inhibiting ability on ACE”.
As for PPSEPTKL, the “Stability” value in data set [3] is on record as “excellent stability”.
As to `O=C(O)CN(CCN(CC(=O)O)CC(=O)O)CC(=O)O` [ethylenediamine tetraacetic acid], the “Chelating ability towards zinc ions” value in data set [2] is 57.17 mg/g.
